Test [1] deals with human airway smooth muscle cells. Conditions: 200 μM; cited from earlier work.
Test [2] has as its target α6β3γ2 BzR/GABA(A). Conditions: Figure 1; LTK cells; read-out: Binding affinity α6; cited from earlier work.
Test [3] concerns the target α2β3γ2 BzR/GABA(A). Conditions: Figure 1; LTK cells; read-out: Binding affinity α2; cited from earlier work.
Test [4] deals with α5β3γ2 BzR/GABA(A). Conditions: Figure 1; LTK cells; read-out: Binding affinity α5; cited from earlier work.
In test [5] the target is α4β3γ2 BzR/GABA(A). Conditions: Figure 1; LTK cells; read-out: Binding affinity α4; cited from earlier work.
Test [6] has as its target α3β3γ2 BzR/GABA(A). Conditions: Figure 1; LTK cells; read-out: Binding affinity α3; cited from earlier work.
In test [7] the target is T1, α1β3γ2 GABAA/BzR (Homo sapiens, UniProt P14867+P18507). Set-up: expressed in transfected cells; host or cells: LTK cells (given for XLi-093 only). Conditions: read-out: Affinity Ki α1, cited from earlier work.
Test [8] has as its target T2, α3β3γ2 GABAA/BzR (Homo sapiens, UniProt P18507+P34903). On the set-up: expressed in transfected cells; host or cells: LTK cells (given for XLi-093 only). The settings on record: read-out: Affinity Ki α3, cited from earlier work.
Test [9] deals with T3, α2β3γ2 GABAA/BzR (Homo sapiens, UniProt P18507+P47869). On the set-up: expressed in transfected cells; host or cells: LTK cells (given for XLi-093 only). The settings on record: read-out: Affinity Ki α2, cited from earlier work.
The target of test [10] is T4, α5β3γ2 GABAA/BzR (Homo sapiens, UniProt P18507+P31644). Set-up: expressed in transfected cells; host or cells: LTK cells (given for XLi-093 only). The settings on record: read-out: Affinity Ki α5, cited from earlier work.
The target of test [11] is T4, α5β3γ2 GABAA/BzR. Kind of test: Competition binding to HEK cell membranes, α5β3γ2. Set-up: expressed in transfected cells.
Test [12] addresses T5, α4β3γ2 GABAA/BzR (Homo sapiens, UniProt P18507+P48169).
T5 construct: expressed in transfected cells; host or cells: LTK cells (given for XLi-093 only)
Kind of test: biochemical. In kind it is binding.

The target in test [13] is T2, α3β3γ2 GABAA/BzR. In words: Competition binding to HEK cell membranes, α3β3γ2. On the set-up: expressed in transfected cells.
Test [14] concerns the target T1, α1β3γ2 GABAA/BzR. Kind of test: Competition binding to HEK cell membranes, α1β3γ2. Set-up: expressed in transfected cells.
The target of test [15] is T3, α2β3γ2 GABAA/BzR. Kind of test: Competition binding to HEK cell membranes, α2β3γ2. Set-up: expressed in transfected cells.
Test [16] has as its target T5, α4β3γ2 GABAA/BzR. Conditions: read-out: Affinity Ki α4, cited from earlier work.
The target in test [17] is T6, α6β3γ2 GABAA/BzR (Homo sapiens, UniProt P18507+Q16445). In words: Competition binding to HEK cell membranes, α6β3γ2. Set-up: expressed in transfected cells.
The target in test [18] is T6, α6β3γ2 GABAA/BzR. Set-up: expressed in transfected cells; host or cells: LTK cells (given for XLi-093 only). Conditions: read-out: Affinity Ki α6, cited from earlier work.
In test [19] the test system is dopamine neurons in the VTA. The settings on record: rat, in vivo; cited from earlier work.

The values that follow come from paper PMC4657098, “A Review of the Updated Pharmacophore for the Alpha 5 GABA(A) Benzodiazepine Receptor Model” (International Journal of Medicinal Chemistry, 2015).

Like-named read-outs stand apart in the source and are kept apart here.

In the case of `COc1ccc(-c2ccc(=N)n(CCCC(=O)O)n2)cc1` [gabazine, reference compound], the “effect on the attenuation by SH-053-2′F-R-CH3 of the calcium increase” value in test [1] is “significantly blocked”.
In the case of `C#Cc1ccc2c(c1)C(=O)N(C)Cc1c(C(=O)OCC)ncn1-2` [RY-80 (3)], the Ki in [2] was 0.0288 µM; in test [3], 0.0214 µM; in test [4], 0.00049 µM; in test [5], 0.0053 µM; in test [6], 0.0258 µM.
As to `O=C(OCC(F)(F)F)c1cc2c(cn1)[nH]c1ccc(I)cc12` [WY-B-20], the Ki is 0.012 µM in [7] (Figure 33, αxβ3γ2); 0.047 µM in test [8] (Figure 33, αxβ3γ2); 0.039 µM in test [9] (Figure 33, αxβ3γ2); 0.122 µM in test [10] (Figure 33, αxβ3γ2); 0.122 µM in test [11] (Ki α5); 2 µM in [12]. Further, the Ki in test [13] (Ki α3) is 0.047 µM; in [14] (Ki α1) it was 0.012 µM; in test [15] (Ki α2) it was 0.039 µM; in [16] (Figure 33, αxβ3γ2), 2 µM; in test [17] (Ki α6) it was 3 µM; in test [18] (Figure 33, αxβ3γ2), 3 µM.
With `CN1CCc2cccc3c2[C@H]1Cc1ccc(O)c(O)c1-3` [apomorphine, reference compound], in test [19], the “number of active dopamine neurons, MAM rats withdrawn from repeated HAL” value is on record as “no effect” and the “number of spontaneously active dopamine neurons, SAL rats withdrawn from repeated HAL” value is “increased”.
On to `O=C(OCC(F)(F)F)c1cc2c(cn1)[nH]c1ccc(-c3cccs3)cc12` [WY-B-27-2], for which the Ki in test [7] is 0.0092 µM; in test [8], 0.072 µM; in test [9], 0.013 µM; in test [10], 0.449 µM; in test [11] (read-out: Ki α5) it was 0.449 µM; in [12] (read-out: Ki α4) it was 2 µM. Besides, the Ki in test [13] (read-out: Ki α3) is 0.072 µM; in test [14] (read-out: Ki α1), 0.00919 µM; in [15] (read-out: Ki α2) it was 0.111 µM; in [16] it was 2 µM; in test [17] (read-out: Ki α6) it was 2 µM; in [18], 2 µM.
As to `O=C(CCCN1CCC(O)(c2ccc(Cl)cc2)CC1)c1ccc(F)cc1` [haloperidol, reference compound], the “number of spontaneously active dopamine neurons after repeated treatment, SAL and MAM rats” value in [19] was “reduction”.
